Laboratory results from patent publication US4434171A, “Dibenzazepine derivatives, pharmaceutical compositions containing them, and pharmaceutical methods using them” (Sandoz Ltd., priority 1980, dated 1984).
pIC50: −log10 of the molar value.

Key:
3H-Spiperone receptors = molecular target: T1, 3H-Spiperone receptors (Bos taurus, UniProt P20288); experiment: binding to 3H-Spiperone receptors, modified test from J. Leysen et al.; conditions: calf brain striatal tissue; 0.1 nM 3H-Spiperone; 5×10^-7 M Cinanserin; pH 7.7; 40 min at room temperature; read-out: IC50 in the neuroleptic test from J. Leysen (inhibition of specific Spiperone binding)
T1 construct: Fresh calf brain striatal tissue is homogenized; from tissue; host or cells: calf brain striatum membranes
T1 sequence (P20288 whole entry): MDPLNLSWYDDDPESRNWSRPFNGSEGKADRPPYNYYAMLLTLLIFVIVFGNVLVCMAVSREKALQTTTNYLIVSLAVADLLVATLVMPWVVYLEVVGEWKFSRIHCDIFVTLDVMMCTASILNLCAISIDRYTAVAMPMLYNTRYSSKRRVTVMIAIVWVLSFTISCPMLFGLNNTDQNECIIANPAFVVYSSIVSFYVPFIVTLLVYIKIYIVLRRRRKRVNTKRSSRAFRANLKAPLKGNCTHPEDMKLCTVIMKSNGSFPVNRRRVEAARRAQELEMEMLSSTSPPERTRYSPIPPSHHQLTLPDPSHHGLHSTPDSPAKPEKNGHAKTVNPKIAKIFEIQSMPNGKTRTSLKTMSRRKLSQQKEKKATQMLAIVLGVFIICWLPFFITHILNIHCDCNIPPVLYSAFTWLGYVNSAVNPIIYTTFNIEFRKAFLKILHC
Description: Fresh calf brain striatal tissue is homogenized in a 25 fold volume of Tris buffer (50 mM, pH 7.7, 120 mM sodium chloride) and centrifuged. The pellets are resuspended in a 22 fold volume of the Tris buffer, incubated for 15 min. at 37° C., recentrifuged and the pellets resuspended in a 300 fold volume of the Tris buffer. […] After incubation for 40 min. at room temperature, the assay mixtures are rapidly filtered through Whatman GF/B filters and washed twice with 5 ml of ice cold Tris buffer and then scintillation-counted.

[1] = tested on: spontaneous motor activity in male mice; experiment: inhibition of spontaneous motor activity in male mice (Caviezel and Baillod); type: in vivo, mouse; conditions: p.o.
Description: In particular, the compounds of the invention are useful as neuroleptic agents in the treatment of e.g. psychotic disturbances such as schizophrenia, as indicated in standard tests, e.g. by an inhibition of spontaneous motor activity in male mice on p.o. administration of from about 1 to about 50 mg/kg animal body weight of the compounds e.g. in accordance with the principles of Caviezel and Baillod (Pharm. Acta Helv. (1958), 33, 465-484).

With `CN1CCC(N2Cc3cc(Cl)ccc3Cc3ccccc32)CC1` [Example 1, 8-Chloro-5,6-dihydro-5-(1-methyl-4-piperidinyl)-11H-dibenz[b,e]azepine] the pIC50 (3H-Spiperone receptors) was 7.00 and the “activity in inhibiting spontaneous motor activity, compared with Clozapine” value [1] was “comparable to that of Clozapine”.
